# Experimental data reported in the C3SDB collision cross section collection.
# Values joined by “and” are separate entries in the source; they are usually repeats but may differ in a detail not shown here. Equal values may be shown once.
# Settings: [M+K]+; instrument: DT; stepped-field
row,SMILES,collision cross section (N2) [Å²]
1,CCCCC/C=C\C/C=C\C/C=C\CCCCC(=O)O[C@H](COC(=O)CCCCCCCCCCCCC)COP(=O)([O-])OCC[N+](C)(C)C [PC(32:3)],288.9

# Same assay, conditions: [M+Na-H2O]+; instrument: DT; stepped-field
row,SMILES,collision cross section (N2)
1,CC(=O)NC1C(OC2C(O)C(CO)OC(OC(C(O)CO)C(OC3OC(C)C(O)C(O)C3O)C(O)C=O)C2O)OC(CO)C(O)C1OC1OC(CO)C(O)C(O)C1O (centres undefined) [HexNAc-Fuc-(Hex)3],262 Å² and 263.1 Å²

# Same assay, conditions: [M+Na]+; instrument: DT; stepped-field
row,collision cross section (N2),SMILES
1,312 Å²,CCCCCCCCCCCCC=CC[C@@H](O)[C@H](COP(=O)([O-])OCC[N+](C)(C)C)NC(=O)CC=CCC=CCCCCCCCCCCCCCCCCCCC [SM(44:3)]
2,304.7 Å²,CC/C=C\C/C=C\C/C=C\C/C=C\C/C=C\CCCC(=O)OC[C@H](COP(=O)(O)OC[C@H](N)C(=O)O)OC(=O)CCCCCCCCCCC/C=C\C/C=C\CCCCC [PS(42:7)]
3,313.2 Å²,CCCCCCCCCCC=CCC=CCC=CCC=CCC(=O)OC[C@H](COP(=O)(O)OC[C@H](N)C(=O)O)OC(=O)CC=CCC=CCC=CCC=CCCCCCCCCCC [PS(46:8)]
4,299.7 Å²,CC/C=C\C/C=C\C/C=C\C/C=C\C/C=C\C/C=C\CCC(=O)OC[C@H](COP(=O)(O)OC[C@H](N)C(=O)O)OC(=O)CC/C=C\C/C=C\C/C=C\C/C=C\C/C=C\C/C=C\CC [PS(44:12)]
5,293.1 Å²,CC/C=C\C/C=C\C/C=C\C/C=C\C/C=C\C/C=C\CCC(=O)OC[C@H](COP(=O)(O)OC[C@H](N)C(=O)O)OC(=O)CCCCCCC/C=C\CCCCCCC [PS(39:7)]
6,311.5 Å²,CCCCC/C=C\C/C=C\C/C=C\C/C=C\CCCCCC(=O)O[C@H](COC(=O)CCCCCCCCC/C=C\CCCCCCCCCC)COP(=O)(O)OC[C@H](N)C(=O)O [PS(44:5)]

# Continued, molecule first:
row,SMILES,collision cross section (N2)
1,CC/C=C\C/C=C\C/C=C\C/C=C\C/C=C\CCCC(=O)O[C@H](COC(=O)CCCCCCCCC/C=C\C/C=C\CCCCC)COP(=O)(O)OCCN [PE(40:7)],290.8 Å²
2,CCCCCCCCCCCCC=CC[C@@H](O)[C@H](CO[C@@H]1O[C@H](CO)[C@@H](O)C(O)C1O)NC(=O)CCCCCCCCCCCCCCCCCCC (some centres undefined) [GlcCer(38:1)],293.8 Å²
3,CCCCC/C=C\C/C=C\C/C=C\C/C=C\CCCC(=O)O[C@H](COC(=O)CCCCCCCCCCCCCCC)COP(=O)(O)OC[C@H](N)C(=O)O [PS(36:4)],287.8 Å²
4,CCCCCCCCCCCCC=CC[C@@H](O)[C@H](CO[C@@H]1O[C@H](CO)[C@@H](O)C(O)C1O)NC(=O)CC=CCC=CCCCCCCCCCCCCCCCCCCC (some centres undefined) [GlcCer(44:3)],310.7 Å²
5,CCCCCCCCCCCCC=CC[C@@H](O)[C@H](CO[C@@H]1O[C@H](CO)[C@@H](O)C(O)C1O)NC(=O)CCCCCCCCCCCCCCCCCC (some centres undefined) [GlcCer(37:1)],286.8 Å²
6,CCCCCCCCCCCCCCCC(=O)N[C@@H](CO[C@@H]1O[C@H](CO)[C@@H](O)C(O)C1O)[C@H](O)CCCCCCCCCCCCCCC (some centres undefined) [GlcCer(34:0)],281.7 Å²
7,CC/C=C\C/C=C\C/C=C\C/C=C\CCCCC(=O)O[C@H](COC(=O)CCC/C=C\C/C=C\C/C=C\C/C=C\CCCCC)COP(=O)(O)OCCN [PE(38:8)],281.9 Å²
8,OCC1OC(OC2C(CO)OC(OC3C(CO)OC(OC4C(CO)OC(OC5C(CO)OC(OC6C(CO)OC(OC7C(CO)OC(OC8C(CO)OC(OC9C(CO)OC(OC%10C(CO)OC(O)C(O)C%10O)C(O)C9O)C(O)C8O)C(O)C7O)C(O)C6O)C(O)C5O)C(O)C4O)C(O)C3O)C(O)C2O)C(O)C(O)C1O (centres undefined) [(Hex)10],365.1 Å² and 373.8 Å²
9,OC[C@H]1O[C@H](O[C@H]2[C@H](O)[C@@H](O)[C@@H](O[C@H]3[C@H](O)[C@@H](O)[C@@H](O[C@H]4[C@H](O)[C@@H](O)[C@@H](O[C@H]5[C@H](O)[C@@H](O)[C@@H](O[C@H]6[C@H](O)[C@@H](O)[C@@H](O)O[C@@H]6CO)O[C@@H]5CO)O[C@@H]4CO)O[C@@H]3CO)O[C@@H]2CO)[C@H](O)[C@@H](O)[C@@H]1O [Maltohexaose],286.4 Å²
10,CC(=O)N[C@H]1[C@H](OC2[C@@H](O)[C@H](O[C@@H]([C@H](O[C@@H]3O[C@@H](C)[C@@H](O)[C@@H](O)[C@@H]3O)[C@@H](O)C=O)[C@H](O)CO)O[C@H](CO)[C@@H]2O)O[C@H](CO)[C@@H](O[C@@H]2O[C@@H](C)[C@@H](O)[C@@H](O)[C@@H]2O)[C@@H]1O[C@@H]1O[C@H](CO)[C@H](O)[C@H](O)[C@H]1O (some centres undefined) [Lacto-N-Difucohexaose II],291.2 Å² and 306.3 Å²
11,CCCCCCCCCCCCC=CC[C@@H](O)[C@H](CO[C@@H]1O[C@H](CO)[C@@H](O)C(O)C1O)NC(=O)CC=CCCCCCCCCCCCCCCCCCCCCC (some centres undefined) [GlcCer(43:2)],307.8 Å²
12,CC/C=C\C/C=C\C/C=C\C/C=C\CCCCC(=O)O[C@H](COCCCCCCCCCCCCCCCC)COP(=O)(O)OCCN [PE(o34:4)],275.9 Å²

# Same assay, conditions: [M]+; instrument: DT; stepped-field
row,SMILES,collision cross section (N2) [Å²]
1,CCCCCC[N+](CCCCCC)(CCCCCC)CCCCCC [TAA6],213.5
2,CCCCCCCC[N+](CCCCCCCC)(CCCCCCCC)CCCCCCCC [TAA8],256.6
3,CCCCCCCCCCCCCCCC[N+](CCCCCCCCCCCCCCCC)(CCCCCCCCCCCCCCCC)CCCCCCCCCCCCCCCC [TAA16],361.5
4,CCCCCCCCCC[N+](CCCCCCCCCC)(CCCCCCCCCC)CCCCCCCCCC [TAA10],293.5
